27 molecules from patent publication US20210130339A1, “COMPOUNDS” (GLAXOSMITHKLINE INTELLECTUAL PROPERTY DEVELOPMENT LIMITED, priority 2017, published 2021) can be followed below.

In this experiment the target is T1, recombinant full length LRRK2 (Homo sapiens, UniProt Q5S007).
T1 construct: A BacMam virus expressing full length recombinant LRRK2 was purchased from Invitrogen; host or cells: SH-SY5Y human neuroblastoma cells transduced with BacMam LRRK2 virus (MOI 50)
The experiment is described as follows: Recombinant cellular LRRK2 AlphaScreen assay. Conditions: LRRK2 Ser935 phosphorylation, SH-SY5Y cells over-expressing recombinant full length LRRK2; read-out: pIC50 in the recombinant cellular LRRK2 AlphaScreen assay (converted). The class given is cell-based. The source says: b. Recombinant Cellular LRRK2 AlphaScreen Assay
To determine the activity of compounds against LRRK2 kinase activity in cells, the observed LRRK2 kinase-dependent modulation of LRRK2 Ser 935 phosphorylation (Dzamko et al., 2010, Biochem. J. 430: 405-413) was utilized to develop a quantitative 384 well plate-based immunoassay of LRRK2 Ser935 phosphorylation in the human neuroblastoma cell line SH-SY5Y, engineered to over-express recombinant full length LRRK2 protein. A BacMam virus expressing full length recombinant LRRK2 was purchased from Invitrogen and amplified by inoculation of SF-9 cells at MOI 0.3 for 4-5 days in Sf-900 III SFM medium supplemented with 3% fetal bovine serum. Infected cell cultures were then centrifuged at 2000 g for 20 minutes, viral supernatant titer determined by anti-gp64 plaque assay and stored at 4° C. Affinity-purified anti-phospho LRRK2 Ser935 sheep polyclonal antibody (Dzamko et al., 2010, Biochem. J. 430: 405-413) was biotinylated by standard methods (PerkinElmer). Anti-LRRK2 rabbit polyclonal antibody was purchased from Novus Biologicals. AlphaScreen Protein A IgG Kit (including acceptor and donor beads) was purchased from Perkin Elmer. SH-SY5Y cells were grown in DMEM/F12 medium with 10% dialysed fetal bovine serum and harvested by treatment with 0.5% trypsin-EDTA for 5 minutes at 37° C. followed by centrifugation at 1000 rpm for 4 minutes. The cell pellet was resuspended in Opti-MEM reduced serum media (Invitrogen) at 200,000 cells/ml and mixed with the BacMam LRRK2 virus at MOI=50. 50 μl cell solutions were then dispensed to each well of a 384-well plate and incubated at 37° C., 5% CO2 for 24 hours. Serial dilutions of test compounds were prepared in Opti-MEM reduced serum media (Invitrogen) and 5.6 ul transferred from compound plate to cell assay plate to achieve a top final assay concentration of 10 uM. DMSO was used in certain wells as controls. Cells were incubated at 37° C., 5% CO2 for 60 minutes. The medium was then removed and cells lysed by addition of 20 ul cell lysis buffer (Cell Signaling Technology) and incubation at 4° C. for 20 minutes. 10 ul of antibody/acceptor bead mix [(1/1000 biotinylated-pS935 LRRK2 antibody, 1/1000 total-LRRK2 antibody, 1/100 Acceptor beads in AlphaScreen detection buffer (25 mM Hepes (pH 7.4), 0.5% Triton X-100, 1 mg/ml Dextran 500 and 0.1% BSA)] was then added to each well and plates incubated for 2 hours at ambient temperature in the dark. 10 μl of donor beads solution (1/33.3 donor beads in AlphaScreen detection buffer) was then added to each well. Following incubation for a further 2 hours at ambient temperature in the dark, plates were read on an EnVision™ plate reader at emission 520-620 nm with excitation 680 nm. Dose response curve data was based on sigmoidal dose-response model.
A general note: Alpha assays give light when donor and acceptor beads are brought close together.

Values joined by “and” are separate entries in the source; they are usually repeats but may differ in a detail not shown here. Equal entries are not always repeated.

T1 sequence (Q5S007 whole entry): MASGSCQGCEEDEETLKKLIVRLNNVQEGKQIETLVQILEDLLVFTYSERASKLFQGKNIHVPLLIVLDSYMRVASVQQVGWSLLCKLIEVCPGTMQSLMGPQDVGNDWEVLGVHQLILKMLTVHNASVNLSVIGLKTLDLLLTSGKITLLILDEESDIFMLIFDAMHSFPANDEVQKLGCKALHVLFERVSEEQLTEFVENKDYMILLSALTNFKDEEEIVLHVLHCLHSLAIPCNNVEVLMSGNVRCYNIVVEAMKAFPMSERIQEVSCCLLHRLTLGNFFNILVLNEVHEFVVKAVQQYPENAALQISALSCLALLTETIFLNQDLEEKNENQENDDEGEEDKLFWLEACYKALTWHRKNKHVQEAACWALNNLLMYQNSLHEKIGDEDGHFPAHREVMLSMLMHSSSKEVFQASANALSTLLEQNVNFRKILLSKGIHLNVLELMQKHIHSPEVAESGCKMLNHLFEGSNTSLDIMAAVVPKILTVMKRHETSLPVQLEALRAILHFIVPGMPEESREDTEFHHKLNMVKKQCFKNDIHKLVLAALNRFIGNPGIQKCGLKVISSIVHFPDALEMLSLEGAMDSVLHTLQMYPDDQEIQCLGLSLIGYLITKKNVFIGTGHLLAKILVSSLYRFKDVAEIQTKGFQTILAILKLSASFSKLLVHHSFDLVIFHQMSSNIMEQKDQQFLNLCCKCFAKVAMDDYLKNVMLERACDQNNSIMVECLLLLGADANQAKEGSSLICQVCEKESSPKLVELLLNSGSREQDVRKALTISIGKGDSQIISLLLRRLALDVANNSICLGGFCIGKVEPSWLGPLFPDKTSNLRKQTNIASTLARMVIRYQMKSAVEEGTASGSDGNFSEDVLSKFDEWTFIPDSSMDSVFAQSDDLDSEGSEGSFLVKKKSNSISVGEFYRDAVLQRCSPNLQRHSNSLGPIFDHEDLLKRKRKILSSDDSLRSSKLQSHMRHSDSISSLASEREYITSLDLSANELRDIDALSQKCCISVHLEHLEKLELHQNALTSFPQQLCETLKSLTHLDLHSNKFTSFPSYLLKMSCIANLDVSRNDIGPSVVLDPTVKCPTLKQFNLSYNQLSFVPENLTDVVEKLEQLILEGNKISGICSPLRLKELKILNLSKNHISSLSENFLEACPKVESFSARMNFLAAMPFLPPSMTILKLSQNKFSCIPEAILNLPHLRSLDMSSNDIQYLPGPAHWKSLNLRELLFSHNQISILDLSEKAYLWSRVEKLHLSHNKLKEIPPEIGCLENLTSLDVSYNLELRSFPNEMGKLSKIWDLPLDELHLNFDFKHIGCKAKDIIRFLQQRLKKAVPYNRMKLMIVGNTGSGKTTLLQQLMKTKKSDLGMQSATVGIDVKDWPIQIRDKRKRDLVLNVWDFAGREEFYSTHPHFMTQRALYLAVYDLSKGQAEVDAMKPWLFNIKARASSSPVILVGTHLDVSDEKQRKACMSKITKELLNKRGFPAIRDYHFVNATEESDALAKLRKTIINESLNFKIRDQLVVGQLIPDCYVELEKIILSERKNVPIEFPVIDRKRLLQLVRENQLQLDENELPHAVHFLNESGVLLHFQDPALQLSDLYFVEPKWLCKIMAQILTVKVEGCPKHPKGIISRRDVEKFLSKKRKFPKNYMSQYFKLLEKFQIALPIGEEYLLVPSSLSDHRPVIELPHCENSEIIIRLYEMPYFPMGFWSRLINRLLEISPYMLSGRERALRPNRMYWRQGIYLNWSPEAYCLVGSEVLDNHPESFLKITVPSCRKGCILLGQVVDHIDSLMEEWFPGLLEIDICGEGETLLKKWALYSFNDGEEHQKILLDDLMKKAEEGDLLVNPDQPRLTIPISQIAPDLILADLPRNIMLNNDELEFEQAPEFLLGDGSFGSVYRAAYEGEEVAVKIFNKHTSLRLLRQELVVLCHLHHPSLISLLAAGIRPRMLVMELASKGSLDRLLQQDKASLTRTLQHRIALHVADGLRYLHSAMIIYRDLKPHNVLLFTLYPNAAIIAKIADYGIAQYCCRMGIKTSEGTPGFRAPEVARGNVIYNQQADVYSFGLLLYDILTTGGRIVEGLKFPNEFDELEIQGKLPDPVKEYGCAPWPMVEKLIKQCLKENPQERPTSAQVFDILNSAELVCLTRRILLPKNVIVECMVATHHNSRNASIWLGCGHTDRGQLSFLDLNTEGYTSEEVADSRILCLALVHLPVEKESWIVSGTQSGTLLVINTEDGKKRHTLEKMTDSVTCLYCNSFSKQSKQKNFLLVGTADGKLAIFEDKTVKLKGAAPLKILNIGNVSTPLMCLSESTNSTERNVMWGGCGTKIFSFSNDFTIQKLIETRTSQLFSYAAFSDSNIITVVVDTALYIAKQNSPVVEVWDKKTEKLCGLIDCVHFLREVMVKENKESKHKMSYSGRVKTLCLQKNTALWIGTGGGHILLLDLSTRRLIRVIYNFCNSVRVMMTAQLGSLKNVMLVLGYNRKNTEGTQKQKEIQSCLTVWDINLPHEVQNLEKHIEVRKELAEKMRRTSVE

Take `COc1nc(N2CC(O)C2)cc(-n2ncc3cc(C)c(C4CCN(C5CCOC5)CC4F)cc32)n1` (single isomer, unassigned) [Example E5, cis-1-(6-(6-(3-Fluoro-1-(tetrahydrofuran-3-yl)piperidin-4-yl)-5-methyl-1H-indazol-1-yl)-2-methoxypyrimidin-4-yl)azetidin-3-ol]: the IC50 was ≤ 10 nM and 5.01 nM. In the case of `COc1nc(N2CC(C)(O)C2)cc(-n2ncc3cc(C)c(C4CCN(C5CCOC5)CC4)cc32)n1` (single isomer, unassigned) [Example E11, 1-(2-Methoxy-6-(5-methyl-6-(1-(tetrahydrofuran-3-yl)piperidin-4-yl)-1H-indazol-1-yl)pyrimidin-4-yl)-3-methylazetidin-3-ol] it was at most 100 nM; in that of `COc1nc(N2CC[C@H](O)C2)cc(-n2ncc3cc(C)c(C4CCN(C5CCOC5)CC4)cc32)n1` (single isomer, unassigned) [Example E17], at most 100 nM. In the case of `COc1nc(N2CC[C@@H](O)C2)cc(-n2ncc3cc(C)c(C4CCN(C5CCOC5)CC4)cc32)n1` (single isomer, unassigned) [Example E19] it was at most 100 nM; in that of `COc1nc(N2CCOC(C(C)O)C2)cc(-n2ncc3cc(C)c(C4CCN(C5CCOC5)CC4)cc32)n1` (single isomer, unassigned) [Example E21, 1-(4-(2-Methoxy-6-(5-methyl-6-(1-(tetrahydrofuran-3-yl)piperidin-4-yl)-1H-indazol-1-yl)pyrimidin-4-yl)morpholin-2-yl)ethanol], at most 100 nM.

As for `Cc1nc(N2CCO[C@H](CO)C2)cc(-n2ncc3cc(Cl)c(C4CCN(C5CCOC5)CC4)cc32)n1` (single isomer, unassigned) [Example E25], the IC50 is at most 100 nM.

As to `COc1nc(N2CC(O)C2)cc(-n2ncc3cc(Cl)c(C4CCN(C5CCOC5)CC4)cc32)n1` (single isomer, unassigned) [Example E29, 1-(6-(5-Chloro-6-(1-(tetrahydrofuran-3-yl)piperidin-4-yl)-1H-indazol-1-yl)-2-methoxy-pyrimidin-4-yl)azetidin-3-ol], the IC50 is at most 10 nM. `[2H]C1(N2CCC(c3cc4c(cnn4-c4cc(N5CCO[C@@H](CO)C5)nc(C)n4)cc3C)CC2)CCOC1` (single isomer, unassigned) [Example E35]: the IC50 was 200 nM. In the case of `[2H]C1(N2CCC(c3cc4c(cnn4-c4cc(N5CCO[C@@H](CO)C5)nc(C)n4)cc3C)CC2)CCOC1` (single isomer, unassigned) [Example E36] it was 158 nM. In the case of `Cc1nc(N2CC(CC(C)O)C2)cc(-n2ncc3cc(Cl)c(C4CCN(C5CCOC5)CC4)cc32)n1` (single isomer, unassigned) [Example E44, 1-(1-(6-(5-Chloro-6-(1-(tetrahydrofuran-3-yl)piperidin-4-yl)-1H-indazol-1-yl)-2-methylpyr-imidin-4-yl)azetidin-3-yl)propan-2-ol] it was at most 100 nM.

For `COc1nc(N2CCNC(=O)C2)cc(-n2ncc3cc(C)c(C4CCN(C5CCOC5)CC4F)cc32)n1` (single isomer, unassigned) [Example E53, 4-(6-(6-(3-Fluoro-1-(tetrahydrofuran-3-yl)piperidin-4-yl)-5-methyl-1H-indazo-1-yl)-2-methoxypyrimidin-4-yl)piperazin-2-one], the IC50 was at most 10 nM. As for `Cc1nc(N2CC(C)OC(CO)C2)cc(-n2ncc3cc(C)c(C4CCN(C5CCOC5)CC4)cc32)n1` (single isomer, unassigned) [Example E60, (6-Methyl-4-(2-methyl-6-(5-methyl-6-(1-(tetrahydrofuran-3-yl)piperidin-4-yl)-1H-indazol-1-yl)pyrimidin-4-yl)morpholin-2-yl)methanol], the figure is at most 100 nM; as for `COc1nc(N2CC(C(C)O)C2)cc(-n2ncc3cc(C)c(C4CCN(C5CCOC5)CC4)cc32)n1` (single isomer, unassigned) [Example E97, 1-(1-(2-methoxy-6-(5-methyl-6-(1-(tetrahydrofuran-3-yl)piperidin-4-yl)-1H-indazol-1-yl)pyrimidin-4-yl)azetidin-3-yl)ethanol], at most 100 nM; as for `COc1nc(N2CC(C(C)O)C2)cc(-n2ncc3cc(C)c(C4CCN(C5CCOC5)CC4)cc32)n1` (single isomer, unassigned) [Example E98, 1-(1-(2-methoxy-6-(5-methyl-6-(1-(tetrahydrofuran-3-yl)piperidin-4-yl)-1H-indazol-1-yl)pyrimidin-4-yl)azetidin-3-yl)ethanol], at most 100 nM. For the molecule `COc1nc(N2CC(C(C)O)C2)cc(-n2ncc3cc(C)c(C4CCN(C5CCOC5)CC4)cc32)n1` (single isomer, unassigned) [Example E99, 1-(1-(2-methoxy-6-(5-methyl-6-(1-(tetrahydrofuran-3-yl)piperidin-4-yl)-1H-indazol-1-yl)pyrimidin-4-yl)azetidin-3-yl)ethanol], the IC50 is at most 1000 nM.

With `COc1nc(N2CC(C(C)O)C2)cc(-n2ncc3cc(C)c(C4CCN(C5CCOC5)CC4)cc32)n1` (single isomer, unassigned) [Example E100, 1-(1-(2-methoxy-6-(5-methyl-6-(1-(tetrahydrofuran-3-yl)piperidin-4-yl)-1H-indazol-1-yl)pyrimidin-4-yl)azetidin-3-yl)ethanol], the IC50 is at most 1000 nM. In the case of `Cc1nc(N2CCO[C@@H](CO)C2)cc(-n2ncc3cc(C)c(C4CCN(C5CCOC5)CC4F)cc32)n1` (single isomer, unassigned) [Example E101] it was at most 100 nM. In the case of `Cc1nc(N2CCO[C@H](CO)C2)cc(-n2ncc3cc(C)c(C4CCN(C5CCOC5)CC4F)cc32)n1` (single isomer, unassigned) [Example E103] it was at most 100 nM; in that of `Cc1nc(N2CCO[C@H](CO)C2)cc(-n2ncc3cc(C)c(C4CCN(C5CCOC5)CC4F)cc32)n1` (single isomer, unassigned) [Example E104], at most 100 nM. In the case of `Cc1nc(N2CCO[C@H](CO)C2)cc(-n2ncc3cc(C)c(C4CCN(C5CCOC5)CC4F)cc32)n1` (single isomer, unassigned) [Example E105] it was at most 100 nM; in that of `COc1nc(N2CCO[C@H](CO)C2)cc(-n2ncc3cc(C)c(C4CCN(C5CCOC5)CC4F)cc32)n1` (single isomer, unassigned) [Example E121], at most 10 nM. For `COc1nc(N2CCO[C@H](CO)C2)cc(-n2ncc3cc(C)c(C4CCN(C5CCOC5)CC4F)cc32)n1` (single isomer, unassigned) [Example E122], the IC50 was at most 10 nM. In the case of `COc1nc(N2CCO[C@H](CO)C2)cc(-n2ncc3cc(C)c(C4CCN(C5CCOC5)CC4F)cc32)n1` (single isomer, unassigned) [Example E123] it was at most 10 nM. In the case of `Cc1nc(N2CCO[C@@H](CO)C2)cc(-n2ncc3cc(Cl)c(C4CCN(C5CCOC5)CC4)cc32)n1` (single isomer, unassigned) [Example E129] it was at most 1000 nM; in that of `Cc1nc(N[C@H]2C[C@H](O)C2)cc(-n2ncc3cc(C)c(C4CCN(C5CCOC5)CC4)cc32)n1` (single isomer, unassigned) [Example E132, trans-3-((2-methyl-6-(5-methyl-6-(1-(tetrahydrofuran-3-yl)piperidin-4-yl)-1H-indaz-ol-1-yl)pyrimidin-4-yl)amino)cyclobutanol], at most 1000 nM; in that of `Cc1nc(OC2CC(O)C2)cc(-n2ncc3cc(C)c(C4CCN(C5CCOC5)CC4)cc32)n1` (single isomer, unassigned) [Example E145, 3-((2-methyl-6-(5-methyl-6-(1-(tetrahydrofuran-3-yl)piperidin-4-yl)-1H-indazol-1-yl)pyrimidin-4-yl)oxy)cyclobutanol], at most 1000 nM.

With `[2H]C1([2H])CC(c2cc3c(cnn3-c3cc(N4CCO[C@@H](CO)C4)nc(C)n3)cc2C)CC([2H])([2H])N1[C@H]1CCOC1` [Example E96, ((R)-4-(2-methyl-6-(5-methyl-6-(1-((S)-tetrahydrofuran-3-yl)piperidin-4-yl-2,2,6,6-d4)-1H-indazol-1-yl)pyrimidin-4-yl)morpholin-2-yl)methanol], the IC50 was ≤ 100 nM and 100 nM.
